# According to patent US20260306633A1, “A COMBINATION THERAPY FOR CANCER TREATMENT” (Purdue Research Foundation, priority 2023, published 2026):
# Where two headings read alike, the source gives them in different places.
# Legend:
# TNBC BT-549 cells = assay: Cell survival / cell inhibition (MTT cell cytotoxicity assay) after 24 h treatment with photosensitizer and/or chemotherapeutic agent, dark or light-irradiated; format: cell-based, human; conditions: for cell inhibition (%), combination with cisplatin / cell inhibition (%), combination with doxorubicin / cell inhibition (%), combination with fluorouracil / cell inhibition (%), combination with methotrexate / cell inhibition (%), combination with paclitaxel: light 0.96 J cm−2; for cell inhibition (%), combination with doxorubicin: PS 100 nM + doxorubicin 500 nM; for cell inhibition (%), combination with methotrexate: PS 100 nM + methotrexate 500 nM; for cytotoxicity in the absence of light, PS alone: PS 500 nM; for viability at 1 µM: high end of 100-1000 nM; for viability at 0.01 µM: low end of 10-100 nM (so in the source)
# Method: Human mammary epithelial carcinoma cell lines purchased from the American Type Culture Collection BT-549 (ATCC HTB-122) were cultured according to ATCC protocol. BT-549 cells were grown in RPMI 1640 containing 0.023 IU/mL insulin and supplemented with 10% fetal bovine serum (FBS). Cells were grown to 80-90% confluence in 75-cm^2 culture flasks (Corning) for 4-5 days in a humidified incubator (Fisher Scientific Isotemp) with 5% CO2 at 37° C. During the incubation period, growth media was changed once with fresh pre-warmed media (pH 7.2). To harvest the cells, old growth media was aspirated out, and 3 mL 0.25% trypsin solution (Thermo Sci Hyclone) were added. The cells were incubated for 5 minutes, and the cell pellet after centrifugation was resuspended in 3 mL media, broken up gently, then 1 mL of suspended cells was transferred into a new T75 cell culture flask containing pre-warmed media (20 mL) for further culturing.
# Cells were grown to confluence in a 96-well plate (9×10^3 cells/well) and co-treated for 24 hours with synthesized photosensitizers (PSs) and chemotherapeutic agents of varying concentrations ranging from 5 nM to 50 μM) in growth media from a stock solution of 10 mM in DMSO (dimethyl sulfoxide, Fisher). After 24-hour treatment, old growth media containing the PSs or compounds were aspirated out and replaced with fresh media. Plates were then positioned below a non-coherent LumaCare LC-122 650 nm light source for 1 minute at an energy fluence rate of 0.96 J/cm^2 and a power of 16 mW/cm^2 (measured using a Newport optical power meter Model 840). Unirradiated cells served as control samples. The following day, cells were washed with pre-warmed PBS, and 11MTT (3-[4,5-dimethyl-thiazol-2-yl]-2.5-diphenyltetrazolium bromide, Sigma, 0.3 mg/mL) in PBS was added to each well. Samples were allowed to incubate for additional 2 hours, after which dark blue crystals formed. DMSO was added to each well and plates were shaken at room temperature for 1 hour to dissolve the purplish-blue formazan crystals. Absorbance values at 570 nm were measured on a microplate reader (BioRad 550). Cell survival was calculated based on the absorbance of the untreated cells alone (as control) and were directly proportional to the number of viable cells in culture. Results were reported as the mean±SD of triplicate measurements.
# The unmetallated PS and the indium complexes were used.
# Light dose corresponds to an energy fluence rate of 0.96 J/cm^2 used.
# Power of 16 mW/cm^2 used.
# Cell inhibition in TNBC cells is based on the cell survival (MTT) assay of the binary therapy, blending the effect of PDT and chemotherapeutic agents. […] MePheo serves as a control compound. TNBC cells were then exposed to light after binary treatment for 24 hours.
# human TNBC BT-549 cells = assay: Fluorescence microscopy (Hoechst 33258) of cell morphology / cell death pathway; format: cell-based; conditions: fluorouracil 25 μM, dark (FIG. 18U)
# Method: Grayscale images of cells stained with Hoechst 33258. Morphology of (A) untreated unirradiated cells, sham control; (B) illuminated cells; (C-E) cells treated with: PSs (InCLA, CBTN, and CPA) and paclitaxel in the dark; (F-H) PSs, followed by 1 minute light exposure; (I) paclitaxel unirradiated; (J-L) PSs and paclitaxel in the dark; (M-O) PSs co-treated with paclitaxel, then light-exposed; (P-Q) PSs co-treated with doxorubicin, then irradiated; (R) PSs and cisplatin, dark; (S-T) PSs and cisplatin, irradiated; (U) fluorouracil, dark; (V) InCLA with fluorouracil in the dark; (W) light-exposed and, (X-Y) PSs with methotrexate with light. Inserts indicate enlarged view. […] Light dose in 1 minute=0.96 J cm^−2; in 30 seconds=0.48 J cm^−2. Concentrations: PSs=50 nM; paclitaxel=50 nM; doxorubicin=500 nM; cisplatin=25 μM; fluororuracil=25 μM; and, methotrexate=500 nM.
# Cells (1 mL aliquots) obtained from a diluted cell suspension were seeded into each well (1.7 cm^2, 8×10^3 cells/well) of a 4-well culture slide (BD Biosciences) and grown to confluence in 5% CO2 at 37° C. for 3-4 days for attachment to the substratum. After aspirating the old growth media, 1 mL of the photosensitizer and chemotherapeutic agents (with appropriate concentrations) in fresh pre-warmed media at 37° C. was added to each well. After compound treatment for 24 hours, cells were washed twice with 1 mL fresh growth media, and then irradiated with light using LumaCare LC-122 as described above. Cells were stained in the dark with Hoechst 33258 (Molecular Probes) in pre-warmed media for 10 minutes at 37° C., washed twice with filtered PBS, then fixed with filtered paraformaldehyde for 15 minutes in the incubator. After thorough liquid aspiration, the wells were removed and allowed to air dry in the dark for 1 hour. Slides were protected with coverslips, whose edges were sealed using clear fast-drying nail polish and allowed to dry at room temperature in the dark for 30 minutes. Images were recorded using fluorescence microscopy (DAPI for Hoechst 350-390 nm excitation and 460-490 nm emission filters) using an upright fluorescence microscope with Retiga imaging 2000R (Nikon Optiphot-2, 20× and 40×) and an image processing Nikon NIS-Elements V4.0 Qimaging software.
# To determine the preferred cell death pathway for the binary chemophotodynamic therapy, tracking the hallmarks of apoptosis or necrosis was accomplished using a nuclear stain to monitor chromatin condensation and cellular contraction. TNBC cells are spindle-shaped and nearly round with intact cytoplasm, diffused chromatin, distinct cellular membrane, and large oval nuclei staining dark blue with the nuclear stain (FIG. 18A-B).
# [1] = PS 100 nM + cisplatin 25 μM, 24 h
# [2] = PS 100 nM + fluorouracil 25 μM, 24 h
# [3] = PS 100 nM + paclitaxel 50 nM, 24 h
compound,measurement,setting,value
"C=Cc1c(C)c2cc3nc(c(CC(=O)OC)c4[nH]c(cc5nc(cc1[nH]2)C(C)=C5CC)c(C)c4C(=O)NCCCCCCNC(=O)c1ccc(C(=C)c2cc4c(cc2C)C(C)(C)CCC4(C)C)cc1)[C@@H](CCC(=O)OC)[C@@H]3C [CBX, chlorin bexarotene conjugate]","cell inhibition (%), combination with cisplatin",TNBC BT-549 cells; [1],0%
same,"cell inhibition (%), combination with doxorubicin",TNBC BT-549 cells; 24 h,30%
same,"cell inhibition (%), combination with fluorouracil",TNBC BT-549 cells; [2],6%
same,"cell inhibition (%), combination with methotrexate",TNBC BT-549 cells; 24 h,42%
same,"cell inhibition (%), combination with paclitaxel",TNBC BT-549 cells; [3],48%
same,"cytotoxicity in the absence of light, PS alone",TNBC BT-549 cells; dark,No cytotoxicity
"C=Cc1c(C)c2cc3nc(c(CC(=O)OC)c4[nH]c(cc5nc(cc1[nH]2)C(C)=C5CC)c(C)c4C(=O)NCCCCCCNC(=O)CCCC[C@@H]1CCSS1)[C@@H](CCC(=O)OC)[C@@H]3C [CLA, chlorin lipoic acid conjugate]","cell inhibition (%), combination with cisplatin",TNBC BT-549 cells; [1],65%
same,effect of added cisplatin compared to cisplatin-treated cell viability,"TNBC BT-549 cells; PS 100 nM + cisplatin 25 μM, light",reduced cell survival
same,"cell survival, co-treatment with cisplatin upon light","TNBC BT-549 cells; PS 100 nM + cisplatin 25 μM, light, 1440 min",35%
same,"cell inhibition (%), combination with doxorubicin",TNBC BT-549 cells; 24 h,33%
same,"cell survival, co-treatment with fluorouracil in the dark","TNBC BT-549 cells; PS 100 nM + fluorouracil 25 μM, 24 h, dark",84%
same,"cell inhibition (%), combination with fluorouracil",TNBC BT-549 cells; [2],35%
same,"cell inhibition (%), combination with methotrexate",TNBC BT-549 cells; 24 h,43%
same,"cell survival, co-treatment with paclitaxel in the dark","TNBC BT-549 cells; PS 100 nM + paclitaxel 50 nM, 24 h, dark",59%
same,"cell inhibition (%), combination with paclitaxel",TNBC BT-549 cells; [3],45%
same,"cell survival, PS alone","TNBC BT-549 cells; PS 100 nM, light 0.96 J/cm^2, 1440 min",90%
same,"cytotoxicity in the absence of light, PS alone",TNBC BT-549 cells; dark,No cytotoxicity
same,combination therapy vs monotherapy (cisplatin),"TNBC BT-549 cells; PS + cisplatin, light",better photodynamic effect when co-treated with cisplatin than PS-treatment alone
"COc1cccc2c1C(=O)c1c(O)c3c(c(O)c1C2=O)C[C@@](O)(C(=O)CO)C[C@@H]3O[C@H]1C[C@H](N)[C@H](O)[C@H](C)O1 [doxorubicin, reference compound]",viability at 0.5 µM,"TNBC BT-549 cells; Homo sapiens, BT-549, 24 h, doxorubicin 500 nM, dark, read-out: cell survival, drug only",81%
same,viability at 1 µM,"TNBC BT-549 cells; Homo sapiens, BT-549, 24 h, doxorubicin, dark, read-out: cell survival, drug only (end of decrease)",70%
same,viability at 0.1 µM,"TNBC BT-549 cells; Homo sapiens, BT-549, 24 h, doxorubicin, dark, low end of 100-1000 nM, read-out: cell survival, drug only (start of decrease)",100%
same,viability at 1 µM,"TNBC BT-549 cells; Homo sapiens, BT-549, 24 h, doxorubicin, light, read-out: cell survival, drug only (end of decrease)",72%
same,viability at 0.1 µM,"TNBC BT-549 cells; Homo sapiens, BT-549, 24 h, doxorubicin, light, low end of 100-1000 nM, read-out: cell survival, drug only (start of decrease)",95%
same,"average decrease in cell survival upon light irradiation compared to unirradiated cells, drug only","TNBC BT-549 cells; drug alone, light vs dark",2-5%
"O=c1[nH]cc(F)c(=O)[nH]1 [fluorouracil, 5-Fluorouracil, reference compound]",viability at 25 µM,"TNBC BT-549 cells; Homo sapiens, BT-549, 24 h, fluorouracil 25 μM, dark, read-out: cell survival, drug only",64%
same,viability at 0.1 µM,"TNBC BT-549 cells; Homo sapiens, BT-549, 24 h, fluorouracil, dark, high end of 10-100 nM (so in the source), read-out: cell survival, drug only (end of decrease)",65%
same,viability at 0.01 µM,"TNBC BT-549 cells; Homo sapiens, BT-549, 24 h, fluorouracil, dark, read-out: cell survival, drug only (start of decrease)",87%
same,viability at 0.1 µM,"TNBC BT-549 cells; Homo sapiens, BT-549, 24 h, fluorouracil, light, high end of 10-100 nM (so in the source), read-out: cell survival, drug only (end of decrease)",68%
same,viability at 0.01 µM,"TNBC BT-549 cells; Homo sapiens, BT-549, 24 h, fluorouracil, light, read-out: cell survival, drug only (start of decrease)",85%
same,"average decrease in cell survival upon light irradiation compared to unirradiated cells, drug only","TNBC BT-549 cells; drug alone, light vs dark",9%
same,"cell morphology, fluorouracil, dark",human TNBC BT-549 cells,did not affect the cellular morphology
"CN(Cc1cnc2nc(N)nc(N)c2n1)c1ccc(C(=O)N[C@@H](CCC(=O)O)C(=O)O)cc1 [methotrexate, reference compound]",viability at 0.5 µM,"TNBC BT-549 cells; Homo sapiens, BT-549, 24 h, methotrexate 500 nM, dark, read-out: cell survival, drug only",78%
same,viability at 1 µM,"TNBC BT-549 cells; Homo sapiens, BT-549, 24 h, methotrexate, dark, read-out: cell survival, drug only (end of decrease)",66%
same,viability at 0.1 µM,"TNBC BT-549 cells; Homo sapiens, BT-549, 24 h, methotrexate, dark, low end of 100-1000 nM, read-out: cell survival, drug only (start of decrease)",87%
same,viability at 1 µM,"TNBC BT-549 cells; Homo sapiens, BT-549, 24 h, methotrexate, light, read-out: cell survival, drug only (end of decrease)",66%
same,viability at 0.1 µM,"TNBC BT-549 cells; Homo sapiens, BT-549, 24 h, methotrexate, light, low end of 100-1000 nM, read-out: cell survival, drug only (start of decrease)",93%
same,"average increase in cell survival upon light irradiation compared to unirradiated cells, drug only","TNBC BT-549 cells; drug alone, light vs dark",6%
